{
  "source": "patent US20260068882A1",
  "about": "“ARTHROPOD CONTROLLING COMPOSITION” (Firmenich SA, priority 2019, published 2026)",
  "key": {"Aedes aegypti [1]": {"system": "Aedes aegypti", "assay": "In vitro K&D (Klun & Debboun) assay, mosquitoes biting through treated cloth over membrane-blood reservoir", "format": "in vivo", "method": "Controlling efficacy was tested against the yellow fever mosquito, A. aegypti Rockefeller strain.\nObservations of controlling efficacy were made on host-seeking females of uniform age, 5 to 10 days post-eclosion from pupae. Tested hungry females had access to 10% sugar solution but were not blood-fed.\nThe controlling efficacy in vitro was measured using the Klun & Debboun (K&D) assay test module [Klun J A, Kramer M, Debboun M. A new in vitro bioassay system for discovery of novel human-use mosquito controlling compounds. J Am Mosq Control Assoc. 2005; 21:64-70], which is an adaptation of the K&D module [Klun J A, Debboun M. A new module for quantitative evaluation of controlling efficacy using human subjects. J Med Entomol. 2000; 37:177-81.], initially developed and used for quantitative measurement of the efficacy of mosquito controlling compounds on human subjects.\nIn the in vitro assay the module is coupled with a membrane-blood reservoir, consisting of a unit with six wells that are filled with 7 mL defibrinated pig blood maintained at a constant temperature of 38° C. and covered with a bovine collagen film (Devro plc, Edicol-MX400 CLR 100M REEL) as the membrane. Over the membrane a piece of cotton cloth (Baptist Roh, 100% cotton, weight: 69.0 g/m^2, thread density: warp and woof 26.5×26.5 thread/cm, Modessa Basel) was placed after being treated with 80 μL of the tested stimuli.\nThe K&D unit, containing five mosquitoes in each cell was finally placed on top of the treated cloth. Then the numbers of mosquitoes biting in each cell within a 3-min exposure were recorded. This procedure was repeated until 6 replicate exposures and observations (i.e. 30 mosquitoes) were made."}, "Aedes aegypti [2]": {"system": "Aedes aegypti", "assay": "In vivo arm in cage test on forearm of human volunteers", "conditions": "for % of repellency MEAN: 20% in ethanol on forearm, three volunteers", "method": "The Arm in the box method was adapted from the WHO Guidelines for efficacy testing of mosquito repellents for human skin (WHO/CDS/NTD/WHOPES/2009.4). The readiness of 100 hungry female mosquitoes A. aegypti to probe is assessed by inserting an untreated arm into the cage (40×40×40 cm) for 30 seconds (negative control) three times (once at the beginning, once at the fourth hour and once at the eighth hour), to determine probing activity.\nThen, the product is applied onto the skin of the forearm of a human volunteer (1 ml per 600 cm^2) and after 5 minutes, this arm is inserted into the cage and exposed for 3 minutes. The assay take place in temperature (27±2° C.) and humidity (80±10% RH) regulated room on three different volunteers."}, "Ixodes ricinus": {"system": "Ixodes ricinus", "assay": "In vitro Warm Plate Assay for ticks", "format": "in vivo", "outline": "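Repellency against last-stage Ixodes ricinus nymphs in an in vitro warm plate assay, compounds diluted in ethanol at 0.4 and 10 mg/mL, 0.0016% to 1%, or 20% (w/w). Ticks walking down or falling from the treated plate scored as affected, walking up as unaffected; groups of 12 ticks, n=2-5.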"}, "Aedes aegypti [3]": {"system": "Aedes aegypti", "assay": "In vivo arm in cage test on forearm of human volunteers", "conditions": "20% in ethanol on forearm; 0.05 h post application; three volunteers"}},
  "note": "Like-named read-outs stand apart in the source and are kept apart here.",
  "data": [
    {"smiles": "Cc1ccc2c(c1)CC(C)(CO)C2", "note": "(centres unmarked) [ingredient #2, (2,5-dimethyl-2,3-dihydro-1H-inden-2yl)methanol]", "values": [
      {"measurement": "% repulsion", "setting": "Aedes aegypti [1]; 0.0008% in ethanol", "value": 21.5, "unit": "%"},
      {"measurement": "% repulsion", "setting": "Aedes aegypti [1]; 0.004% in ethanol", "value": 25.3, "unit": "%"},
      {"measurement": "% repulsion", "setting": "Aedes aegypti [1]; 0.02% in ethanol", "value": 33.8, "unit": "%"},
      {"measurement": "% repulsion", "setting": "Aedes aegypti [1]; 0.1% in ethanol", "value": 57.1, "unit": "%"},
      {"measurement": "% repulsion", "setting": "Aedes aegypti [1]; 0.5% in ethanol", "value": 84.6, "unit": "%"},
      {"measurement": "% repulsion", "setting": "Aedes aegypti [1]; 2.5% in ethanol", "value": 92.3, "unit": "%"},
      {"measurement": "concentration from which a significant repellent effect is shown", "setting": "Aedes aegypti [1]; on its own, in ethanol", "value": "≥ 0.1", "unit": "%"},
      {"measurement": "% of repellency MEAN", "setting": "Aedes aegypti [2]; 1 h post application", "value": 98.83, "unit": "%"},
      {"measurement": "% of repellency MEAN", "setting": "Aedes aegypti [2]; 2 h post application", "value": 97.79, "unit": "%"},
      {"measurement": "% of repellency MEAN", "setting": "Aedes aegypti [2]; 3 h post application", "value": 96.72, "unit": "%"},
      {"measurement": "% of repellency MEAN", "setting": "Aedes aegypti [2]; 4 h post application", "value": 94.71, "unit": "%"},
      {"measurement": "% of repellency MEAN", "setting": "Aedes aegypti [2]; 5 h post application", "value": 94.05, "unit": "%"},
      {"measurement": "% of repellency MEAN", "setting": "Aedes aegypti [2]; 6 h post application", "value": 91.99, "unit": "%"},
      {"measurement": "% of repellency MEAN", "setting": "Aedes aegypti [2]; 7 h post application", "value": 90.91, "unit": "%"},
      {"measurement": "% of repellency MEAN", "setting": "Aedes aegypti [2]; 8 h post application", "value": 84.67, "unit": "%"},
      {"measurement": "reduction of the number of mosquitoes landing on the volunteers' arm", "setting": "Aedes aegypti [2]; 20% in ethanol, for up to 7 h", "value": "more than 90%"},
      {"measurement": "percentage of ticks being affected", "setting": "Ixodes ricinus; 0.00032% (Table 9)", "value": 0, "unit": "%"},
      {"measurement": "MEAN % affected (ticks)", "setting": "Ixodes ricinus; 0.4 mg/mL in ethanol (Table 5)", "value": 21, "unit": "%"},
      {"measurement": "percentage of ticks being affected", "setting": "Ixodes ricinus; 0.00071% (Table 9)", "value": 15, "unit": "%"},
      {"measurement": "percentage of ticks being affected", "setting": "Ixodes ricinus; 0.0016% (Table 9)", "value": 17, "unit": "%"},
      {"measurement": "percentage of ticks being affected", "setting": "Ixodes ricinus; 0.00357% (Table 9)", "value": 0, "unit": "%"},
      {"measurement": "percentage of ticks being affected", "setting": "Ixodes ricinus; 0.0053% (Table 9)", "value": 15, "unit": "%"},
      {"measurement": "percentage of ticks being affected", "setting": "Ixodes ricinus; 0.008% (Table 9)", "value": 0, "unit": "%"},
      {"measurement": "MEAN % affected (ticks)", "setting": "Ixodes ricinus; 10 mg/mL in ethanol (Table 5)", "value": 92, "unit": "%"},
      {"measurement": "percentage of ticks being affected", "setting": "Ixodes ricinus; 0.0119% (Table 9)", "value": 8, "unit": "%"},
      {"measurement": "percentage of ticks being affected", "setting": "Ixodes ricinus; 0.0178% (Table 9)", "value": 17, "unit": "%"},
      {"measurement": "percentage of ticks being affected", "setting": "Ixodes ricinus; 0.0267% (Table 9)", "value": 38, "unit": "%"},
      {"measurement": "percentage of ticks being affected", "setting": "Ixodes ricinus; 0.04% (Table 9)", "value": 0, "unit": "%"},
      {"measurement": "percentage of ticks being affected", "setting": "Ixodes ricinus; 0.0598% (Table 9)", "value": 31, "unit": "%"},
      {"measurement": "percentage of ticks being affected", "setting": "Ixodes ricinus; 0.089% (Table 9)", "value": 29, "unit": "%"},
      {"measurement": "percentage of ticks being affected", "setting": "Ixodes ricinus; 0.2% (Table 9)", "value": 85, "unit": "%"},
      {"measurement": "percentage of ticks being affected", "setting": "Ixodes ricinus; 0.447% (Table 9)", "value": 100, "unit": "%"},
      {"measurement": "ticks affected / not affected over 12 (in words)", "setting": "Ixodes ricinus; 1%", "value": "only one tick over 12 was not affected"},
      {"measurement": "percentage of ticks being affected", "setting": "Ixodes ricinus; 1% (Table 9)", "value": 71, "unit": "%"},
      {"measurement": "percentage of ticks affected overtime", "setting": "Ixodes ricinus; 20% (w/w) in ethanol, 0.25 h post-application", "value": 100, "unit": "%"},
      {"measurement": "percentage of ticks affected overtime", "setting": "Ixodes ricinus; 20% (w/w) in ethanol, 0.5 h post-application", "value": 83, "unit": "%"},
      {"measurement": "percentage of ticks affected overtime", "setting": "Ixodes ricinus; 20% (w/w) in ethanol, 1 h post-application", "value": 100, "unit": "%"},
      {"measurement": "percentage of ticks affected overtime", "setting": "Ixodes ricinus; 20% (w/w) in ethanol, 2 h post-application", "value": 100, "unit": "%"},
      {"measurement": "percentage of ticks affected overtime", "setting": "Ixodes ricinus; 20% (w/w) in ethanol, 4 h post-application", "value": 0, "unit": "%"},
      {"measurement": "percentage of ticks affected overtime", "setting": "Ixodes ricinus; 20% (w/w) in ethanol, 6 h post-application", "value": 8, "unit": "%"},
      {"measurement": "ticks' repellency overtime (in words)", "setting": "Ixodes ricinus; 20% (w/w) in ethanol, Table 14", "value": "better ticks' repellency than the known repellent"},
      {"measurement": "pest or weed control at 0.0016 %", "setting": "Ixodes ricinus; Ixodes ricinus, 0.0016% (Table 11), read-out: percentage of ticks affected on the Warm Plate", "value": 8, "unit": "%"},
      {"measurement": "pest or weed control at 0.0016 %", "setting": "Ixodes ricinus; Ixodes ricinus, 0.0016% in ethanol (Table 12), read-out: percentage of ticks affected on the Warm Plate", "value": 17, "unit": "%"},
      {"measurement": "pest or weed control at 0.0053 %", "setting": "Ixodes ricinus; Ixodes ricinus, 0.0053% in ethanol (Table 12), read-out: percentage of ticks affected on the Warm Plate", "value": 15, "unit": "%"},
      {"measurement": "pest or weed control at 0.008 %", "setting": "Ixodes ricinus; Ixodes ricinus, 0.008% in ethanol (Table 12), read-out: percentage of ticks affected on the Warm Plate", "value": 0, "unit": "%"},
      {"measurement": "pest or weed control at 0.0119 %", "setting": "Ixodes ricinus; Ixodes ricinus, 0.0119% in ethanol (Table 12), read-out: percentage of ticks affected on the Warm Plate", "value": 8, "unit": "%"},
      {"measurement": "pest or weed control at 0.0178 %", "setting": "Ixodes ricinus; Ixodes ricinus, 0.0178% in ethanol (Table 12), read-out: percentage of ticks affected on the Warm Plate", "value": 17, "unit": "%"},
      {"measurement": "pest or weed control at 0.0267 %", "setting": "Ixodes ricinus; Ixodes ricinus, 0.0267% in ethanol (Table 12), read-out: percentage of ticks affected on the Warm Plate", "value": 38, "unit": "%"},
      {"measurement": "pest or weed control at 0.04 %", "setting": "Ixodes ricinus; Ixodes ricinus, 0.04% (Table 11), read-out: percentage of ticks affected on the Warm Plate", "value": 0, "unit": "%"},
      {"measurement": "pest or weed control at 0.04 %", "setting": "Ixodes ricinus; Ixodes ricinus, 0.04% in ethanol (Table 12), read-out: percentage of ticks affected on the Warm Plate", "value": 0, "unit": "%"},
      {"measurement": "pest or weed control at 0.0598 %", "setting": "Ixodes ricinus; Ixodes ricinus, 0.0598% in ethanol (Table 12), read-out: percentage of ticks affected on the Warm Plate", "value": 31, "unit": "%"},
      {"measurement": "pest or weed control at 0.089 %", "setting": "Ixodes ricinus; Ixodes ricinus, 0.089% in ethanol (Table 12), read-out: percentage of ticks affected on the Warm Plate", "value": 29, "unit": "%"},
      {"measurement": "pest or weed control at 0.2 %", "setting": "Ixodes ricinus; Ixodes ricinus, 0.2% in ethanol (Table 12), read-out: percentage of ticks affected on the Warm Plate", "value": 85, "unit": "%"},
      {"measurement": "pest or weed control at 0.447 %", "setting": "Ixodes ricinus; Ixodes ricinus, 0.447% in ethanol (Table 12), read-out: percentage of ticks affected on the Warm Plate", "value": 100, "unit": "%"},
      {"measurement": "pest or weed control at 1 %", "setting": "Ixodes ricinus; Ixodes ricinus, 1% (Table 11), read-out: percentage of ticks affected on the Warm Plate", "value": 92, "unit": "%"},
      {"measurement": "pest or weed control at 1 %", "setting": "Ixodes ricinus; Ixodes ricinus, 1% in ethanol (Table 12), read-out: percentage of ticks affected on the Warm Plate", "value": 71, "unit": "%"},
      {"measurement": "threshold concentration to be efficient to repel the ticks", "setting": "Ixodes ricinus; Table 9", "value": "above 0.2%"},
      {"measurement": "ticks affected", "setting": "Ixodes ricinus; dose of 0.89%", "value": 29, "unit": "%"},
      {"measurement": "% of repellency MEAN", "setting": "Aedes aegypti [3]", "value": 99.1, "unit": "%"}
    ]}
  ]
}
